Legend:
[1] = human, in vivo; cited from earlier work
Procedure: Administration of PP to humans is not associated with adverse side effects such as nausea, unlike GLP-1 analogs and, as such, is potentially a useful agent for the regulation of food intake and the treatment of obesity. PP is a relatively small peptide (4.2 kDa) and is therefore susceptible to a number of degradative enzymes and other eliminating mechanisms. PP consequently has a short circulating half-life of approximately 7 minutes in humans ([6]). This short half-life limits the use of native PP as a practical obesity treatment. To the best of our knowledge, the mechanisms for the degradati ...

in vivo = experiment: in vivo; parameters: species or system mouse; settings: for level at time molar at 1.5 h: male, C57BL/6, mouse, plasma level of PP at 90 minutes
Procedure: The mice were divided into four treatment groups according to body weight. A protocol similar to that used for the phosphoramidon feeding study was used, with an IP injection, followed by a SC injection 15 minutes later (maximum volume, 50 µL for each injection) of phosphoramidon (0, 7, 20, and 60 mg/kg IP), followed by PP (150 nmol/kg SC in saline; n = 4 to 6; […]). […] Additional mice (n = 2) underwent overnight fasting and were culled at 0 minutes after injection of the control substances (saline SC and vehicle IP) for measurement of the baseline levels of circulating PP. The blood was immediately removed via cardiac puncture and centrifuged at 6000 rpm (Sigma 3K18; 12348 rotor; Sigma-Aldrich) for 10 minutes. The plasma was stored at −20°C until analysis. The plasma samples were assayed using an established in-house PP RIA ([8]). The anti-PP antibody was elevated in rabbit against human PP and recognized PP (and other truncated forms) but not in other PP-fold peptides or gastrointestinal peptides. ^125I-PP was prepared using the iodogen method and purified using HPLC. The assay was performed in duplicate in a total volume of 700 µL of 0.06 M phosphate buffer (pH 7.35) containing 0.3% bovine serum albumin. The samples were incubated for 3 days at 4°C before separation of free and antibody-bound ^125I-PP using dextran-coated charcoal. The sensitivity was ≤5 fmol/tube. The intra-assay coefficient of variation was 6%.

[2] = system: food intake in C57/BL6 mice; experiment: Acute feeding studies (food intake) in overnight-fasted mice; type: in vivo, mouse
Procedure: All animal procedures were approved by the British Home Office, under the United Kingdom Animal (Scientific Procedures) Act 1986 (project license, 70/6402). Adult male C57/BL6 mice (Harlan, Wyton, UK) weighing 20 to 25 g were maintained in individual cages under controlled temperature (21°C to 23°C) and light (12-hour light/dark cycle, with lights on at 7:00 AM). The mice had ad libitum access to water and normal chow RM1 (Special Diet Services, Devon, UK), unless stated otherwise. For acclimatization, the mice were regularly handled and given 2 sham subcutaneous (SC) and/or intraperitoneal (IP) injections of saline. Before each feeding study, the mice were fasted overnight, and the injections were performed during the early light phase (8:00 to 10:00 AM). The mice were stratified by body weight. To investigate the anorectic effects of DPPIV-resistant analogs, the mice were stratified into treatment groups and administered a SC injection (maximum volume, 100 µL) of vehicle, PP, PP3-36, PP2-36, or PP-Ala0 (n = […]). Food intake was measured at 1, 2, 4, and 8 hours after injection to compare the peptides with short half-lives (PP and its endogenous degradation product, PP3-36) and, in a separate experiment, at 24 hours after injection for peptides with modifications (PP-Ala0 and PP2-36, using PP as the comparator). A PP analog with global modifications for enzyme resistance (PP-x) was also investigated and administered as a SC injection (maximum volume, 100 µL) at a high and low dose (n = 9). Food intake was measured at 1, 2, 4, and 8 hours after injection. […] This dose of phosphoramidon was sufficient to inhibit NEP activity ([30]). Food intake was measured at 1, 2, 4, 8, 24, and 48 hours after injection.

mouse Y4 receptor = molecular target: T1, mouse Y4 receptor (Mus musculus, UniProt Q61041); experiment: Y4 receptor binding assay (125I-PP competition); settings: membranes of HEK293 cells overexpressing mouse Y4 receptor; competition with 125I-PP (100 pM); 90 min, 4°C; mean ± SEM of three to five separate experiments; read-out: IC50 (half maximal inhibitory concentration), Y4 receptor binding affinity
T1 construct: expressed in transfected cells; host or cells: HEK293
Procedure: Transfected HEK293 cells overexpressing the mouse Y4 receptor were prepared and binding assays performed as previously described ([29]). Isolated cell membranes (protein concentration, 1 to 2 µg/mL) were incubated for 90 minutes in siliconized polypropylene tubes together with ^125I-PP [1 kBq (100 pM)] and a dose response of unlabeled competing peptides at 4°C in binding buffer [20 mM HEPES (pH 7.4), 1 mM MgCl2, 5 mM CaCl2, 0.1% bovine serum albumin, and protease inhibitors (0.2 mM phenylmethylsulfonyl fluoride, 0.1 mM Diprotin A, and 10 µM phosphoramidon ( all from Sigma-Aldrich)] in a final assay volume of 0.5 mL. PP was iodinated as previously described ([8]) using ^125I from GE Healthcare Life Sciences (Amersham, UK). Pelleted membranes were washed with 5 mL ice-cold assay buffer, and the membranes were centrifuged at 15,874g for 3 minutes at 4°C, as described, to separate bound and free label. Bound radioactivity was measured using a γ-counter (NE 1600; NE Technology Ltd, Reading, UK). Specific binding was calculated as the difference between the amount of ^125I-PP bound in the absence (total binding) and presence of 5 μM unlabeled competing peptide (nonsaturable binding). All curves were performed with points in triplicate. Half maximal inhibitory concentration values were calculated using Prism, version 5.01 (GraphPad Software Inc., San Diego, CA) using a three-parameter logistic equation for the nonlinear regression fit: Y = bottom + (top − bottom)/1 + 10^(LogEC50 − X), where EC50 is the half maximal effective concentration.

T1 sequence (Q61041 whole entry): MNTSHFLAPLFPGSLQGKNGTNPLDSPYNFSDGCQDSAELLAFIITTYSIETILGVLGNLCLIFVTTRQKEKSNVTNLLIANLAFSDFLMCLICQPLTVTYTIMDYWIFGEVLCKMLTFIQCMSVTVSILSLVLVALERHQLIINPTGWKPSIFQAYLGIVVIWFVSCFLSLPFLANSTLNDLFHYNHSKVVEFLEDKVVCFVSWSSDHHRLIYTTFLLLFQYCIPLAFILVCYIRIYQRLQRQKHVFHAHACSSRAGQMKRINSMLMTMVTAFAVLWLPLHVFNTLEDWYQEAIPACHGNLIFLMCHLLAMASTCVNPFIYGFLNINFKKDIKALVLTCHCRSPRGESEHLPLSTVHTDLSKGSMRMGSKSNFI

CC[C@H](C)[C@H](NC(=O)[C@H](Cc1ccc(O)cc1)NC(=O)[C@H](CCCNC(=N)N)NC(=O)[C@H](CCCNC(=N)N)NC(=O)[C@H](CC(C)C)NC(=O)[C@H](CC(=O)O)NC(=O)[C@H](C)NC(=O)[C@H](C)NC(=O)[C@H](Cc1ccc(O)cc1)NC(=O)[C@H](CCC(N)=O)NC(=O)[C@H](C)NC(=O)[C@H](CCSC)NC(=O)[C@H](CCC(N)=O)NC(=O)[C@H](CCC(=O)O)NC(=O)[C@@H]1CCCN1C(=O)[C@@H](NC(=O)[C@H](C)NC(=O)[C@H](CC(N)=O)NC(=O)[C@H](CC(=O)O)NC(=O)CNC(=O)[C@@H]1CCCN1C(=O)[C@H](Cc1ccc(O)cc1)NC(=O)[C@@H](NC(=O)[C@@H]1CCCN1C(=O)[C@H](CCC(=O)O)NC(=O)[C@H](CC(C)C)NC(=O)[C@@H]1CCCN1C(=O)[C@H](C)N)C(C)C)[C@@H](C)O)C(=O)N[C@@H](CC(N)=O)C(=O)N[C@@H](CCSC)C(=O)N[C@@H](CC(C)C)C(=O)N[C@H](C(=O)N[C@@H](CCCNC(=N)N)C(=O)N1CCC[C@H]1C(=O)N[C@@H](CCCNC(=N)N)C(=O)N[C@@H](Cc1ccc(O)cc1)C(N)=O)[C@@H](C)O [PP, Pancreatic polypeptide]
circulating half-life [1]: approximately 7 minutes
level at time molar at 1.5 h (in vivo; sc, 150 nmol/kg, PP alone): 1.92 ± 0.134 nM
level at time molar at 1.5 h (in vivo; sc, with phosphoramidon 7 mg/kg): 5.46 ± 0.807 nM
level at time molar at 1.5 h (in vivo; sc, with phosphoramidon 20 mg/kg): 5.3 ± 0.461 nM
level at time molar at 1.5 h (in vivo; sc, with phosphoramidon 60 mg/kg): 5.53 ± 0.348 nM
plasma levels of PP at 45 minutes, alone vs combined with any dose of phosphoramidon (in vivo; mouse): did not differ significantly
decrease of plasma level (peptide cleared) between 45 and 90 minutes after injection (in vivo; mouse, sc): ~80%
level at time molar at 0.5 h (in vivo; mouse, sc, 100 nmol/kg, plasma peptide level at 30 minutes after injection): 8.74 ± 0.744 nM
level at time molar at 2 h (in vivo; mouse, sc, 100 nmol/kg, plasma peptide level at 120 minutes after injection): 2.11 ± 0.224 nM
cumulative food intake at 8 hours (0- to 8-hour interval), low dose ([2]; 25 nmol/kg SC, overnight-fasted C57BL/6 mice, n = 9, mean ± SEM): 2.36 ± 0.18 g
inhibition of food intake over 24 hours vs saline ([2]; 150 nmol/kg SC, overnight-fasted C57/BL6 mice, 0 to 24 hours, n = 7): did not
cumulative food intake 0 to 8 hours ([2]; 150 nmol/kg SC, overnight-fasted C57/BL6 mice, n = 7, mean ± SEM): 0.93 ± 0.10 g
cumulative food intake at 48 hours, PP alone ([2]; PP 150 nmol/kg SC after vehicle IP, phosphoramidon study, fasted mice, mean ± SEM): 6.52 ± 0.14 g
food intake at 4 hours, PP alone ([2]; PP 150 nmol/kg SC, sitagliptin study, fasted mice, mean ± SEM): 0.91 ± 0.04 g
IC50 (mouse Y4 receptor): 260 ± 40 pM

Source: PMC5460925, “Degradation Paradigm of the Gut Hormone, Pancreatic Polypeptide, by Hepatic and Renal Peptidases” (Endocrinology, 2017)
